{"source": "patent US7312248B2", "about": "“Control of parasites in animals by the use of novel trifluoromethanesulfonanilide oxime ether derivatives” (Schering-Plough Animal Health Corporation, priority 2004, dated 2007)", "format_in_all_cases": "in vivo", "key": {"[1]": {"system": "Brown Dog Tick (Rhipicephalus sanguineus)", "test": "Rapid screening protocol for topical application on brown dog ticks", "details": "for R. sanguineus Mortality (%) 48 h: Laboratory 2 F data; for Rhipicephalus sanguineus Mortality (%) 24 h: topical, 10 μg of active per tick in 1 μL acetone, adult ticks, Laboratory 1 E data", "protocol": "d) Rapid Screening Protocol for Topical Application on Brown Dog Ticks (Rhipicephalus sanguineus)\nThe aim of the test was to determine the presence of significant acaricidal activity in sample compounds or formulations when applied topically on brown dog ticks. A tick was defined as dead if it gave no apparent response when touched lightly and observed for 1 minute. […] Both permethrin and fipronil were employed as reference compounds. The insect species tested was the Brown Dog Tick (Rhipicephalus sanguineus). Mixed sex adult ticks were used for tests. The strain used was cultured by von Berky Veterinary Services, Woody Point, QLD, AU and supplied as unfed adult ticks (mixed sex). Ticks were maintained in controlled conditions (temp. 18°+2° C., humidity 75±5% RH).\nTemperature was maintained at 25±1° C. and the humidity was ambient. […] Ticks were each treated on the abdomen with 1 μL of a single dose level of test sample in acetone; ten ticks were treated with solvent only (acetone) in each test. Tests were replicated 4 times (total of 40 ticks treated). […]"}, "[2]": {"system": "cat flea (Ctenocephalides felis)", "test": "whole plant or invertebrate", "details": "Ctenocephalides felis", "in_short": "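Single-dose screen at 1.26 μg/cm^2: acetone solution dried for 24 h on a Coatasil-treated 159 mm^2 flask base, then 15 adult cat fleas aged 3-7 days per flask, four or more replicates, acetone control. Percent dead, meaning not moving or unable to right themselves, recorded after 8, 24 and/or 48 h at 25 °C and 75% RH.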"}, "[3]": {"system": "cat flea (Ctenocephalides felis)", "test": "Ctenocephalides felis adulticide assay: dose response (LC50)", "description": "c) Ctenocephalides felis Adulticide Assay: C. felis Dose Response\nThe purpose of this example was to determine the LC50 when cat fleas were contacted with a glass surface treated with sample compounds or formulations prepared as described above. Mortality of fleas was defined as follows: fleas were considered dead if they didn't move or were on their sides and unable to walk or right themselves. LC50: Lethal Concentration 50—concentration of glass surface treatment at which 50% of the cat fleas were killed. The test species was the cat flea (Ctenocephalides felis). The strain used was obtained from external suppliers as pupae and held in the laboratory under testing conditions until the adults had emerged. Fifteen (15) fleas were used in a minimum of four replicates for each dose level (total of 60 fleas per dose level). The insects were selected to be in the adult life stage, aged between 3 and 7 days post emergence.\nThe compounds to be tested were dissolved in acetone just prior to testing. Samples of compounds were stored in a refrigerator (5±1° C.) unless otherwise specified. During the mortality testing, the temperature was maintained at 25+1° C. Humidity was maintained at 75±5%. The base (area=159 mm^2) of a 100 mL glass Erlenmeyer (conical) flask provided the treatment surface. Flasks were pretreated with Coatasil™ glass treatment to maximise bio-availability of test compounds by preventing them from binding to the glass surface.\nSix dose levels (concentrations) of test sample, in the form of a serial dilution, were derived from a pilot study and covered a range that produced very low to very high mortality. The base of the 100 mL Erlenmeyer flask was treated with 0.5 mL of test sample in acetone and gently swirled. This volume was sufficient to cover the base of the flask. Flasks were left to dry for 24 hours before flea exposure. Adult cat fleas were lightly anaesthetised by cooling and then placed into a sorting chamber, which allowed fleas to revive and jump into the Erlenmeyer flasks. Fifteen (15)adult cat fleas were collected in each flask. The top of the flasks were then covered in Parafilm™ and small holes made to allow gas exchange. A 0.5 mL volume of acetone was applied to the base of an Erlenmeyer flask and the testing proceeded in the same manner described above. Cat fleas in the treatment containers were held under testing conditions for 24 hours. Mortality resulting from the treatments was recorded at 8 and 24 hours."}, "[4]": {"system": "Haemonchus contortus", "test": "Haemonchus contortus larvacidal (larval development) assay", "details": "144 h, read-out: Haemonchus contortus LD99", "in_short": "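Nematode eggs placed on agar containing compound (12 two-fold dilutions, final 0.024–50 μg/ml) and left 6 days to develop to L3. LD99 is the lowest concentration inhibiting development of 99% of larvae, derived from well titre (2^n−1) and top concentration.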"}, "[5]": {"details": "8 h, read-out: C. felis Mortality (%) 8 h, 8 h, Laboratory 2 B data"}, "[6]": {"details": "24 h, read-out: C. felis Mortality (%) 24 h, 24 h, Laboratory 2 B data"}, "[7]": {"details": "24 h, read-out: Ctenocephalides felis Mortality (%) 24 h"}, "[8]": {"details": "8 h, read-out: Ctenocephalides felis Mortality (%) 8 h"}, "[9]": {"details": "24 h, read-out: C. felis Mortality (%) 24 h, 24 h, Laboratory 1 A data"}}, "note": "Like-named read-outs stand apart in the source and are kept apart here."}
{"smiles": "CC(C)(C)/C(=N\\Oc1ccc(F)cc1)c1cc(Cl)ccc1NS(=O)(=O)C(F)(F)F", "note": "[Compound 198, N-{4-chloro-2-[1-(4-fluorophenoxyimino)2,2-dimethylpropyl]phenyl}trifluoromethanesulfonamide]", "values": [{"measurement": "R. sanguineus Mortality (%) 48 h", "setting": "[1]", "value": 35, "unit": "%"}, {"measurement": "mortality at 1.26 µg/cm2, 1.26 µg/cm2", "setting": "[2]; [5]", "value": 16, "unit": "%"}, {"measurement": "mortality at 1.26 µg/cm2, 1.26 µg/cm2", "setting": "[2]; [6]", "value": 92, "unit": "%"}]}
{"smiles": "CCOCN(c1ccc(Cl)cc1/C(CC)=N/OCc1ccc(Cl)cc1)S(=O)(=O)C(F)(F)F", "note": "[Compound 302]", "values": [{"measurement": "Rhipicephalus sanguineus Mortality (%) 24 h", "setting": "[1]", "value": 5, "unit": "%"}, {"measurement": "mortality at 1.26 µg/cm2", "setting": "[2]; [7]", "value": 3, "unit": "%"}, {"measurement": "mortality at 1.26 µg/cm2", "setting": "[2]; 48 h, read-out: Ctenocephalides felis Mortality (%) 48 h", "value": 82, "unit": "%"}]}
{"smiles": "C/C(=N\\Oc1ccc(Cl)cc1)c1ccc(C(F)(F)F)cc1NS(=O)(=O)C(F)(F)F", "note": "[Compound 199, N-{2-[1-(4-chlorophenoxyimino)ethyl]-5-trifluoromethylphenyl}trifluoromethanesulfonamide]", "values": [{"measurement": "R. sanguineus Mortality (%) 48 h", "setting": "[1]", "value": 5, "unit": "%"}, {"measurement": "mortality at 1.26 µg/cm2, 1.26 µg/cm2", "setting": "[2]; [5]", "value": 82, "unit": "%"}, {"measurement": "mortality at 1.26 µg/cm2, 1.26 µg/cm2", "setting": "[2]; [6]", "value": 100, "unit": "%"}]}
{"smiles": "CC/C(=N\\OCCOC)c1cc(Cl)ccc1NS(=O)(=O)C(F)(F)F", "note": "[Compound 183]", "values": [{"measurement": "R. sanguineus Mortality (%) 48 h", "setting": "[1]", "value": 100, "unit": "%"}, {"measurement": "mortality at 1.26 µg/cm2, 1.26 µg/cm2", "setting": "[2]; [5]", "value": 100, "unit": "%"}, {"measurement": "mortality at 1.26 µg/cm2, 1.26 µg/cm2", "setting": "[2]; [6]", "value": 100, "unit": "%"}]}
{"smiles": "CC/C(=N\\OCC1CCCC1)c1cc(Cl)ccc1NS(=O)(=O)C(F)(F)F", "note": "[Compound 197]", "values": [{"measurement": "R. sanguineus Mortality (%) 48 h", "setting": "[1]", "value": 100, "unit": "%"}, {"measurement": "mortality at 1.26 µg/cm2, 1.26 µg/cm2", "setting": "[2]; [5]", "value": 80, "unit": "%"}, {"measurement": "mortality at 1.26 µg/cm2, 1.26 µg/cm2", "setting": "[2]; [6]", "value": 97, "unit": "%"}]}
{"smiles": "CC/C(=N\\OCC1CCCCC1)c1ccc(C(F)(F)F)cc1NS(=O)(=O)C(F)(F)F", "note": "[Compound 222]", "values": [{"measurement": "R. sanguineus Mortality (%) 48 h", "setting": "[1]", "value": 32, "unit": "%"}, {"measurement": "mortality at 1.26 µg/cm2, 1.26 µg/cm2", "setting": "[2]; [5]", "value": 27, "unit": "%"}, {"measurement": "mortality at 1.26 µg/cm2, 1.26 µg/cm2", "setting": "[2]; [6]", "value": 96, "unit": "%"}]}
{"smiles": "O=S(=O)(Nc1ccc(Cl)cc1-c1ccon1)C(F)(F)F", "note": "[Compound 293]", "values": [{"measurement": "Rhipicephalus sanguineus Mortality (%) 24 h", "setting": "[1]", "value": 80, "unit": "%"}, {"measurement": "mortality at 1.26 µg/cm2", "setting": "[2]; [8]", "value": 60, "unit": "%"}, {"measurement": "mortality at 1.26 µg/cm2", "setting": "[2]; [7]", "value": 100, "unit": "%"}]}
{"smiles": "O=S(=O)(Nc1ccc(Cl)cc1/C(=N/OCC1CCCCC1)C1CCCCC1)C(F)(F)F", "note": "[Compound 209]", "values": [{"measurement": "R. sanguineus Mortality (%) 48 h", "setting": "[1]", "value": 22, "unit": "%"}, {"measurement": "mortality at 1.26 µg/cm2, 1.26 µg/cm2", "setting": "[2]; [5]", "value": 38, "unit": "%"}, {"measurement": "mortality at 1.26 µg/cm2, 1.26 µg/cm2", "setting": "[2]; [6]", "value": 93, "unit": "%"}]}
{"smiles": "CC(=O)N(c1ccc(Cl)cc1/C(C)=N/Oc1ccc(F)cc1)S(=O)(=O)C(F)(F)F", "note": "[Compound 308]", "values": [{"measurement": "Rhipicephalus sanguineus Mortality (%) 24 h", "setting": "[1]", "value": 7, "unit": "%"}, {"measurement": "mortality at 1.26 µg/cm2", "setting": "[2]; [8]", "value": 29, "unit": "%"}, {"measurement": "mortality at 1.26 µg/cm2", "setting": "[2]; [7]", "value": 100, "unit": "%"}]}
{"smiles": "CCO/N=C(/c1cc(Cl)ccc1NS(=O)(=O)C(F)(F)F)C1CCCCC1", "note": "[Compound 213]", "values": [{"measurement": "R. sanguineus Mortality (%) 48 h", "setting": "[1]", "value": 90, "unit": "%"}, {"measurement": "mortality at 1.26 µg/cm2, 1.26 µg/cm2", "setting": "[2]; [5]", "value": 53, "unit": "%"}, {"measurement": "mortality at 1.26 µg/cm2, 1.26 µg/cm2", "setting": "[2]; [6]", "value": 100, "unit": "%"}]}
{"smiles": "C/C(=N\\OCC1CCCO1)c1cc(Cl)ccc1NS(=O)(=O)C(F)(F)F", "note": "(stereo not shown) [Compound 203]", "values": [{"measurement": "R. sanguineus Mortality (%) 48 h", "setting": "[1]", "value": 95, "unit": "%"}, {"measurement": "mortality at 1.26 µg/cm2, 1.26 µg/cm2", "setting": "[2]; [5]", "value": 98, "unit": "%"}, {"measurement": "mortality at 1.26 µg/cm2, 1.26 µg/cm2", "setting": "[2]; [6]", "value": 98, "unit": "%"}]}
{"smiles": "O=S(=O)(Nc1ccc(Cl)cc1/C(=N/OC1CCCCC1)C1CCCCC1)C(F)(F)F", "note": "[Compound 212]", "values": [{"measurement": "R. sanguineus Mortality (%) 48 h", "setting": "[1]", "value": 57, "unit": "%"}, {"measurement": "mortality at 1.26 µg/cm2, 1.26 µg/cm2", "setting": "[2]; [5]", "value": 24, "unit": "%"}, {"measurement": "mortality at 1.26 µg/cm2, 1.26 µg/cm2", "setting": "[2]; [6]", "value": 100, "unit": "%"}]}
{"smiles": "CC/C(=N\\OCc1ccc(Cl)c(Cl)c1)c1cc(Cl)ccc1NS(=O)(=O)C(F)(F)F", "note": "[Compound 79]", "values": [{"measurement": "C. felis LC50", "setting": "[3]; Laboratory 1 C data", "value": 0.6, "unit": "μg/cm^2"}, {"measurement": "mortality at 1.26 µg/cm2, 1.26 µg/cm2", "setting": "[2]; 8 h, read-out: C. felis Mortality (%) 8 h, 8 h, Laboratory 1 A data", "value": 73, "unit": "%"}, {"measurement": "mortality at 1.26 µg/cm2, 1.26 µg/cm2", "setting": "[2]; [9]", "value": 100, "unit": "%"}, {"measurement": "IC99", "setting": "[4]", "value": 0.6, "unit": "µg/mL"}]}
{"smiles": "O=S(=O)(Nc1ccc(Cl)cc1/C(=N/OCc1ccc(C(F)(F)F)cc1)c1ccccc1)C(F)(F)F", "note": "[Compound 24]", "values": [{"measurement": "C. felis LC50", "setting": "[3]; Laboratory 2 D data", "value": "0.8^D μg/cm^2"}, {"measurement": "mortality at 1.26 µg/cm2, 1.26 µg/cm2", "setting": "[2]; [9]", "value": 43, "unit": "%"}, {"measurement": "IC99", "setting": "[4]", "value": 2.5, "unit": "µg/mL"}]}
